EP0056152B1, “Process for the after-treatment of linen” (Henkel Kommanditgesellschaft auf Aktien, priority 1981, dated 1982)
Where two headings read alike, the source gives them in different places.

Columns and labels:
Experiment in all cases: Agar plate test with treated textile pieces (inhibition zone)
Assay type in all cases: cell-based
Epidermophyton floccosum = conditions: azole 1 g/l in liquor with 3 g/l fabric softener, 30°C
Description: (§1) Zur Prüfung der antimikrobiellen Wirksamkeit wurde die erfindungsgemäße Ausrüstung der Textilien wie folgt vorgenommen: • 2 x 2 cm große Textilstücke aus Baumwollköper (BW), Wolle (WO) und Nylon (NY) wurden in einer Behandlungsflotte von 20°C 10 Minuten lang bewegt und anschließend bei Raumtemperatur getrocknet. Der Behandlungsflotte waren verschiedene Azolverbindungen in unterschiedlicher Konzentration (s. Tabelle) und 3 g pro 1 Waschflotte eines handelsüblichen Wäscheweichspülmittels mit einem Gehalt an 5 Gew.-% Dimethyl-ditalgalkyl-ammoniumchlorid als textilweichmachender quartärer Ammoniumverbindung zugesetzt. Die Textilproben wurden auf mit unterschiedlichen Testkeimen beimpfte Agarplatten aufgelegt, bis zum Eintritt eines vollen Wachstums bei 30°C bebrütet und dann die antimikrobiellen Effekte abgelesen. Dabei bedeuten: • + = volles Wachstum • 0 = kein Hemmhof, kein Wachstum auf den Läppchen • Zahl = Hemmhof in mm um das Gewebe • (Zahl) = Größe des Hemmhofes mit diffuser Begrenzung in mm.
(§2) In einer weiteren Versuchsreihe wurden andere Azolverbindungen bei einer Anwendungskonzentration von 1 g/I Behandlungsflotte gemeinsam mit dem Wäschebehandlungsmittel der Beispiele 1 bis 7 (Konzentration 3 g/I Behandlungsflotte) eingesetzt. Auch hier wurde ein Vergleichsversuch ohne Azolverbindung durchgeführt.

[1] = test system: Trichophyton mentagrophytes; conditions: 30°C; for zone of inhibition at 1000 µg/mL: azole 1 g/l in liquor with 3 g/l fabric softener; for zone of inhibition at 100 µg/mL: azole 0,1 g/l in liquor with 3 g/l fabric softener; for zone of inhibition at 200 µg/mL: azole 0,2 g/l in liquor with 3 g/l fabric softener
Description: as §1
Zum Vergleich wurde die antimikrobielle Wirkung eines azolverbindungsfreien Wäschenachbehandlungsmittels geprüft. Die Ergebnisse sind in der folgenden Tabelle aufgeführt:
as §2

Trichophyton rubrum = conditions: 30°C, read-out: Hemmhof in mm um das Gewebe; for zone of inhibition at 100 µg/mL: azole 0,1 g/l in liquor with 3 g/l fabric softener; for zone of inhibition at 200 µg/mL: azole 0,2 g/l in liquor with 3 g/l fabric softener
Description: as §1
(§3) Zum Vergleich wurde die antimikrobielle Wirkung eines azolverbindungsfreien Wäschenachbehandlungsmittels geprüft. Die Ergebnisse sind in der folgenden Tabelle aufgeführt: […]

Microsporum gypseum = conditions: Nannizzia gypsea, 30°C, read-out: Hemmhof in mm um das Gewebe; for zone of inhibition at 100 µg/mL: azole 0,1 g/l in liquor with 3 g/l fabric softener; for zone of inhibition at 200 µg/mL: azole 0,2 g/l in liquor with 3 g/l fabric softener
Description: as §1, §3

[2] = BW (Baumwollköper), read-out: Hemmhof in mm um das Gewebe
[3] = NY (Nylon), read-out: Hemmhof in mm um das Gewebe
[4] = WO (Wolle), read-out: Hemmhof in mm um das Gewebe
[5] = value in brackets, NY (Nylon), read-out: Größe des Hemmhofes mit diffuser Begrenzung in mm
[6] = value in brackets, BW (Baumwollköper), read-out: Größe des Hemmhofes mit diffuser Begrenzung in mm
[7] = value in brackets, WO (Wolle), read-out: Größe des Hemmhofes mit diffuser Begrenzung in mm

SMILES | zone of inhibition at 1000 µg/mL (Epidermophyton floccosum; [2]) | zone of inhibition at 1000 µg/mL (Epidermophyton floccosum; [4]) | zone of inhibition at 1000 µg/mL (Epidermophyton floccosum; [5]) | zone of inhibition at 1000 µg/mL [1, 2] | zone of inhibition at 1000 µg/mL [1, 3] | zone of inhibition at 1000 µg/mL [1, 4] | zone of inhibition at 1000 µg/mL [1, 6] | zone of inhibition at 1000 µg/mL [1, 7] | zone of inhibition at 100 µg/mL (Trichophyton rubrum; BW (Baumwollköper)) | zone of inhibition at 200 µg/mL (Trichophyton rubrum; BW (Baumwollköper)) | zone of inhibition at 100 µg/mL (Trichophyton rubrum; NY (Nylon)) | zone of inhibition at 200 µg/mL (Trichophyton rubrum; NY (Nylon)) | zone of inhibition at 100 µg/mL (Trichophyton rubrum; WO (Wolle)) | zone of inhibition at 200 µg/mL (Trichophyton rubrum; WO (Wolle)) | zone of inhibition at 100 µg/mL (Microsporum gypseum; BW (Baumwollköper)) | zone of inhibition at 200 µg/mL (Microsporum gypseum; BW (Baumwollköper)) | zone of inhibition at 100 µg/mL (Microsporum gypseum; NY (Nylon)) | zone of inhibition at 200 µg/mL (Microsporum gypseum; NY (Nylon)) | zone of inhibition at 100 µg/mL (Microsporum gypseum; WO (Wolle)) | zone of inhibition at 200 µg/mL (Microsporum gypseum; WO (Wolle)) | further results
C#CC(c1ccccc1)(c1ccccc1)n1ccnc1 [compound 001] | 21 mm | 21 mm | 12 mm | 15 mm | 9 mm | 17 mm | 20 mm | 20 mm |  |  |  |  |  |  |  |  |  |  |  |  | zone of inhibition at 1000 µg/mL (Epidermophyton floccosum; [3]): 7 mm; zone of inhibition at 1000 µg/mL [1, 5]: 12 mm
CC(C)(C)C(=O)C(Oc1ccc(Cl)cc1)n1ccnc1 (centres unmarked) [compound 003] | 3 mm | 10 mm | 0.5 mm | 5 mm | 0.5 mm | 9 mm | 10 mm | 16 mm |  |  |  |  |  |  |  |  |  |  |  |  | zone of inhibition at 1000 µg/mL (Epidermophyton floccosum; [6]): 9 mm; zone of inhibition at 1000 µg/mL (Epidermophyton floccosum; [7]): 17 mm
Cc1ccccc1C1(n2ccnc2)c2ccccc2-c2ccccc21 [compound 009] | 10 mm | 11 mm | 10 mm | 7 mm | 10 mm | 9 mm | 10 mm | 14 mm |  |  |  |  |  |  |  |  |  |  |  |  | zone of inhibition at 1000 µg/mL (Epidermophyton floccosum; [3]): 5 mm; zone of inhibition at 1000 µg/mL (Epidermophyton floccosum; [6]): 13 mm; zone of inhibition at 1000 µg/mL (Epidermophyton floccosum; [7]): 17 mm; zone of inhibition at 1000 µg/mL [1, 5]: 14 mm
O=[N+]([O-])CC(c1c(Cl)cccc1Cl)n1cncn1 (centres unmarked) [compound 045] |  |  |  |  |  |  |  |  | 12 mm | 25 mm | 7 mm | 7 mm | 10 mm | 18 mm | 10 mm | 20 mm | 7 mm | 14 mm | 10 mm | 12 mm | zone of inhibition at 100 µg/mL [1, 2]: 11 mm; zone of inhibition at 200 µg/mL [1, 2]: 16 mm; zone of inhibition at 100 µg/mL [1, 3]: 8 mm; zone of inhibition at 200 µg/mL [1, 3]: 12 mm; zone of inhibition at 100 µg/mL [1, 4]: 8 mm; zone of inhibition at 200 µg/mL [1, 4]: 11 mm
O=[N+]([O-])CC(c1c(Cl)cccc1Cl)n1cnc(Cl)n1 (centres unmarked) [compound 046] |  |  |  |  |  |  |  |  | 9 mm | 12 mm | 4 mm | 7 mm | 13 mm | 7 mm | 14 mm | 16 mm | 8 mm | 10 mm | 8 mm | 10 mm | zone of inhibition at 100 µg/mL [1, 2]: 7 mm; zone of inhibition at 200 µg/mL [1, 2]: 13 mm; zone of inhibition at 100 µg/mL [1, 3]: 5 mm; zone of inhibition at 200 µg/mL [1, 3]: 10 mm; zone of inhibition at 100 µg/mL [1, 4]: 13 mm; zone of inhibition at 200 µg/mL [1, 4]: 13 mm
CC(C)(C)C(c1ccccc1)(c1ccccc1)n1ccnc1 [compound 065] |  |  |  |  |  |  |  |  | 25 mm | 29 mm | 18 mm | 23 mm | 23 mm | 28 mm | 26 mm | 28 mm | 14 mm | 25 mm | 21 mm | 25 mm | zone of inhibition at 100 µg/mL [1, 2]: 26 mm; zone of inhibition at 200 µg/mL [1, 2]: 28 mm; zone of inhibition at 100 µg/mL [1, 3]: 25 mm; zone of inhibition at 200 µg/mL [1, 3]: 26 mm; zone of inhibition at 100 µg/mL [1, 4]: 25 mm; zone of inhibition at 200 µg/mL [1, 4]: 28 mm
